Laboratory results as given in PubChem BioAssay AID2060491 (Molecular Pharmacology Branch, DTP, NCI, 2025).

Tested on: 857933-349-R-J2-PDC complex spheroids, viability
Experiment: Anticancer human tumor 857933-349-R-J2-PDC patient-derived colon adenocarcinoma cell line growth inhibition [GQUAD]
Settings: for IC50: curve of first compound; for viability, T/C: stronger effect = lower value; active means viability on the fitted dose curve at most 10% of control; inactive means the rest
Procedure, shortened: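 Viability of tumor cells grown as complex spheroids with endothelial and stromal cells, exposed to drug combinations. Top concentration at or near clinical Cmax (else 10 microM), diluted in half-log increments.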

[1] = second compound 0.0316 µM, first compound 0.0316 µM
[2] = second compound 0.0316 µM, first compound 0.1 µM
[3] = second compound 0.0316 µM, first compound 0.316 µM
[4] = second compound 0.0316 µM, first compound 1 µM
[5] = second compound 0.0316 µM, first compound 3.16 µM
[6] = second compound 0.0316 µM, first compound 10 µM
[7] = second compound 0.1 µM, first compound 0.0316 µM
[8] = second compound 0.1 µM, first compound 0.1 µM
[9] = second compound 0.1 µM, first compound 0.316 µM
[10] = second compound 0.1 µM, first compound 1 µM
[11] = second compound 0.1 µM, first compound 3.16 µM
[12] = second compound 0.1 µM, first compound 10 µM
[13] = second compound 0.316 µM, first compound 0.0316 µM
[14] = second compound 0.316 µM, first compound 0.1 µM
[15] = second compound 0.316 µM, first compound 0.316 µM
[16] = second compound 0.316 µM, first compound 1 µM
[17] = second compound 0.316 µM, first compound 3.16 µM
[18] = second compound 0.316 µM, first compound 10 µM
[19] = second compound 1 µM, first compound 0.0316 µM
[20] = second compound 1 µM, first compound 0.1 µM
[21] = second compound 1 µM, first compound 0.316 µM
[22] = second compound 1 µM, first compound 1 µM
[23] = second compound 1 µM, first compound 3.16 µM
[24] = second compound 1 µM, first compound 10 µM
[25] = second compound 3.16 µM, first compound 0.0316 µM
[26] = second compound 3.16 µM, first compound 0.1 µM
[27] = second compound 3.16 µM, first compound 0.316 µM
[28] = second compound 3.16 µM, first compound 1 µM
[29] = second compound 3.16 µM, first compound 3.16 µM
[30] = second compound 3.16 µM, first compound 10 µM
[31] = second compound 10 µM, first compound 0.0316 µM
[32] = second compound 10 µM, first compound 0.1 µM
[33] = second compound 10 µM, first compound 0.316 µM
[34] = second compound 10 µM, first compound 1 µM
[35] = second compound 10 µM, first compound 3.16 µM
[36] = second compound 10 µM, first compound 10 µM
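Further: spheroids exposed to compounds for one week before readout.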
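Wherever viability, T/C is given: percent viability relative to vehicle DMSO wells taken as 100%.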

CC1COCCN1c1cc(C2(S(C)(=N)=O)CC2)nc(-c2ccnc3[nH]ccc23)n1 (centres undefined) + Cc1[nH]c2ccc(F)cc2c1-c1nc2c3cccnc3c3ncccc3c2[nH]1
6.09 µM: IC50 (second compound 0.316 µM)
7.16 µM: IC50 (second compound 3.16 µM)
7.1 µM: IC50 (second compound 1 µM)
6.45 µM: IC50 (second compound 10 µM)
6.02 µM: IC50 (second compound 0.1 µM)
6.7 µM: IC50 (second compound 0.0316 µM)
inactive: viability, T/C [1] 101% | viability, T/C [2] 103% | viability, T/C [3] 88.5% | viability, T/C [4] 75.4% | viability, T/C [5] 59.6% | viability, T/C [6] 45% | viability, T/C [7] 99.9% | viability, T/C [8] 101% | viability, T/C [9] 93.3% | viability, T/C [10] 80.9% | viability, T/C [11] 58.8% | viability, T/C [12] 43% | viability, T/C [13] 106% | viability, T/C [14] 108% | viability, T/C [15] 90.2% | viability, T/C [16] 79.5% | viability, T/C [17] 58.9% | viability, T/C [18] 43.1% | viability, T/C [19] 103% | viability, T/C [20] 98.2% | viability, T/C [21] 91.9% | viability, T/C [22] 83.6% | viability, T/C [23] 59.7% | viability, T/C [24] 45.7% | viability, T/C [25] 108% | viability, T/C [26] 96.3% | viability, T/C [27] 81.2% | viability, T/C [28] 86.3% | viability, T/C [29] 60.4% | viability, T/C [30] 43.6% | viability, T/C [31] 104% | viability, T/C [32] 98.5% | viability, T/C [33] 92.5% | viability, T/C [34] 90.9% | viability, T/C [35] 62.3% | viability, T/C [36] 42.1%

CC(C)(O)C1CCC(Nc2ccc3ncc(-c4cccc(C(F)(F)F)c4)n3n2)CC1 (centres undefined) + Cc1[nH]c2ccc(F)cc2c1-c1nc2c3cccnc3c3ncccc3c2[nH]1
0.673 µM: IC50 (second compound 0.316 µM)
0.657 µM: IC50 (second compound 3.16 µM)
0.725 µM: IC50 (second compound 0.1 µM)
0.707 µM: IC50 (second compound 10 µM)
0.682 µM: IC50 (second compound 1 µM)
inactive: viability, T/C [1] 107% | viability, T/C [2] 95.8% | viability, T/C [3] 96.4% | viability, T/C [4] 35.7% | viability, T/C [7] 104% | viability, T/C [8] 97.8% | viability, T/C [9] 93% | viability, T/C [10] 33.5% | viability, T/C [13] 104% | viability, T/C [14] 92% | viability, T/C [15] 87.3% | viability, T/C [16] 30.8% | viability, T/C [19] 93.4% | viability, T/C [20] 87.3% | viability, T/C [21] 87.5% | viability, T/C [22] 31.4% | viability, T/C [25] 87.3% | viability, T/C [26] 85.1% | viability, T/C [27] 79.5% | viability, T/C [28] 33.1% | viability, T/C [31] 86.6% | viability, T/C [32] 84.6% | viability, T/C [33] 81.7% | viability, T/C [34] 36.4%
active: viability, T/C [5] 2.35% | viability, T/C [6] 2.26% | viability, T/C [11] 2.03% | viability, T/C [12] 1.93% | viability, T/C [17] 2.68% | viability, T/C [18] 2.19% | viability, T/C [23] 2.43% | viability, T/C [24] 1.82% | viability, T/C [29] 3.45% | viability, T/C [30] 2.02% | viability, T/C [35] 3.99% | viability, T/C [36] 2.51%
0.761 µM: IC50 (second compound 0.0316 µM)
